Results taken from PubChem BioAssay (NCI).
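Tested at 5 concentrations; 48 h exposure; 96-well plates; endpoints linearly interpolated, else capped at highest concentration. TGI is the concentration that stops growth completely.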

Tests used:
Assay in all cases: NCI tumour cell line growth inhibition, 48 h
HT29 colon = system: HT29 colon
NCI-H460 lung = system: NCI-H460 lung
OVCAR-4 ovarian = system: OVCAR-4 ovarian
SF-539 CNS = system: SF-539 CNS
IGROV1 ovarian = system: IGROV1 ovarian
SW-620 colon = system: SW-620 colon
HOP-92 NSCLC = system: HOP-92 NSCLC
NCI/ADR-RES ovarian = system: NCI/ADR-RES ovarian
NCI-H522 lung = system: NCI-H522 lung
A498 renal = system: A498 renal
UACC-257 melanoma = system: UACC-257 melanoma
SK-MEL-28 melanoma = system: SK-MEL-28 melanoma
HCT-116 colon = system: HCT-116 colon
MDA-MB-435 = system: MDA-MB-435
MDA-N = system: MDA-N
RXF 393 renal = system: RXF 393 renal
CAKI-1 renal = system: CAKI-1 renal
HCT-15 colon = system: HCT-15 colon
UO-31 renal = system: UO-31 renal
HOP-62 NSCLC = system: HOP-62 NSCLC

| Compound | TGI (HT29 colon) | TGI (NCI-H460 lung) | TGI (OVCAR-4 ovarian) | TGI (SF-539 CNS) | TGI (IGROV1 ovarian) | TGI (SW-620 colon) | TGI (HOP-92 NSCLC) | TGI (NCI/ADR-RES ovarian) | TGI (NCI-H522 lung) | TGI (A498 renal) | TGI (UACC-257 melanoma) | TGI (SK-MEL-28 melanoma) | TGI (HCT-116 colon) | TGI (MDA-MB-435) | TGI (MDA-N) | TGI (RXF 393 renal) | TGI (CAKI-1 renal) | TGI (HCT-15 colon) | TGI (UO-31 renal) | TGI (HOP-62 NSCLC) |
| --- | --- | --- | --- | --- | --- | --- | --- | --- | --- | --- | --- | --- | --- | --- | --- | --- | --- | --- | --- | --- |
| N#CC1(C#N)[C@@H]2CCC=C(Sc3ccccc3)[C@@H]21 | 34.8 µM | 53.6 µM | 29 µM | 34.7 µM | 39.8 µM | 26 µM | 30.7 µM | 40.4 µM | 24.5 µM | > 100 µM | 42.4 µM | 28.9 µM | 29.6 µM | 26.8 µM | 34.1 µM | 26.3 µM | 27.2 µM | 51.1 µM |  |  |
| COc1ccc(N/N=C/C2=CC(C)(C)C(C#N)(C#N)C(O)=C2C#N)cc1 | > 100 µM | > 100 µM | > 100 µM | > 100 µM | > 100 µM | > 100 µM | 75.6 µM | > 100 µM | > 100 µM | 81 µM | > 100 µM | > 100 µM | > 100 µM | > 100 µM | > 100 µM | > 100 µM | > 100 µM | > 100 µM | > 100 µM | > 100 µM |
| CN(C)/C=C/c1c2c(nc3ccccc13)C(=O)c1cccnc1C2=O | 5.15 µM | 0.532 µM | 4.01 µM | 1.21 µM | 4.16 µM | 1.48 µM | 11.5 µM | 1.9 µM | 1.13 µM | 2.31 µM | 1.8 µM | 1.84 µM | 0.697 µM | 1.56 µM | 1.92 µM | 3.48 µM | > 38.7 µM | 1.07 µM | 3.02 µM | 0.435 µM |
| O=C1NC(=O)C(C(c2ccc([N+](=O)[O-])cc2)C2C(=O)NC(=O)NC2=O)C(=O)N1 | > 100 µM | > 100 µM | > 100 µM |  | > 100 µM | > 100 µM | > 100 µM | > 100 µM | > 100 µM | > 100 µM | > 100 µM | > 100 µM | > 100 µM | > 100 µM | > 100 µM | > 100 µM | > 100 µM | > 100 µM | > 100 µM | > 100 µM |
| Cc1ccc(N=C2OP(=O)(Nc3ccc(C)cc3)Oc3ccccc32)cc1 (centres undefined) | > 100 µM | > 100 µM | > 100 µM | > 100 µM | > 100 µM | > 100 µM | 90.5 µM | > 100 µM |  | > 100 µM | > 100 µM | > 100 µM | > 100 µM | > 100 µM | > 100 µM | > 100 µM | > 100 µM | > 100 µM | > 100 µM | > 100 µM |
| Cc1c(C(=O)Nc2ccccc2)nnn1-c1ccnc2cc(C(F)(F)F)ccc12 | > 100 µM | > 100 µM | > 100 µM | > 100 µM | > 100 µM | > 100 µM | 95.4 µM | > 100 µM | > 100 µM | > 100 µM | > 100 µM | > 100 µM | > 100 µM | > 100 µM | > 100 µM | > 100 µM | > 100 µM | > 100 µM | > 100 µM |  |
| O=C(O)/C=C/c1ccc(OS(=O)(=O)O)cc1 | > 100 µM | > 100 µM | > 100 µM | > 100 µM | > 100 µM | > 100 µM | > 100 µM | > 100 µM | > 100 µM | > 100 µM | > 100 µM | > 100 µM | > 100 µM | > 100 µM | > 100 µM | > 100 µM | > 100 µM | > 100 µM | > 100 µM | > 100 µM |
| Cc1cn(C2CC(N=[N+]=[N-])C(CO)O2)c(=O)n(CCCCBr)c1=O (centres undefined) | > 100 µM | > 100 µM | > 100 µM | > 100 µM | > 100 µM | > 100 µM | > 100 µM | > 100 µM | > 100 µM | > 100 µM | > 100 µM | > 100 µM | > 100 µM | > 100 µM | > 100 µM | > 100 µM | > 100 µM | > 100 µM | > 100 µM | > 100 µM |
| CCCCc1nc(C)oc1C(C)C | > 100 µM | > 100 µM | > 100 µM | > 100 µM | > 100 µM | > 100 µM | > 100 µM | > 100 µM | > 100 µM | > 100 µM | > 100 µM | > 100 µM | > 100 µM | > 100 µM | > 100 µM | > 100 µM | > 100 µM | > 100 µM | > 100 µM | > 100 µM |
| CC[C@]1(Cc2ccc(OC)c(OC)c2)C2CC(C(=O)OC)ON2O[C@H](OCc2ccccc2)[C@@H]1OC(C)=O (some centres undefined) | > 100 µM | > 100 µM | > 100 µM |  | > 100 µM | > 100 µM | > 100 µM | > 100 µM | > 100 µM | > 100 µM | > 100 µM | > 100 µM | > 100 µM | > 100 µM | > 100 µM | > 100 µM | > 100 µM | > 100 µM | > 100 µM | > 100 µM |
| COCN1C(=N)C(C(=O)OC(C)(C)C)=C2C=C(O)C=CC21C (centres undefined) | 19.9 µM | 44.9 µM | 26.6 µM | 33.6 µM | 28.2 µM | 17.5 µM | 17.4 µM | 69 µM | 13.5 µM | 36.9 µM | 22.5 µM | 36.3 µM | 20.7 µM | 27.4 µM | 31.9 µM | 19.3 µM | 28.5 µM | 27.5 µM | 26.4 µM | 75.2 µM |
| Cc1nc(-n2nc(-c3ccccc3)cc2-c2ccccc2)sc1C(=O)/C=C/c1ccc([N+](=O)[O-])cc1 | > 100 µM | > 69.3 µM | > 100 µM | 18.8 µM | > 100 µM | > 71.2 µM | > 85.7 µM | > 100 µM | 66.1 µM | > 65.8 µM | > 71.7 µM | > 100 µM | 28.3 µM | 43.5 µM | 59.8 µM | 49.3 µM | > 55 µM | > 61.9 µM | > 54 µM | > 94.4 µM |
